Measured values as given in patent US20240197712A1, “TGF-BETA INHIBITION FOR IMMUNODEFICIENCY VIRUS REACTIVATION FROM LATENCY, ENHANCEMENT OF IMMUNODEFICIENCY VIRUS-SPECIFIC RESPONSES AND IMMUNODEFICIENCY VIRUS CURE” (Northwestern University, priority 2022, published 2024).

How the values were obtained:
Format in all cases: in vivo, rhesus macaques
[1] = tested on: SIVmac239 gag, pol and env peptides; assay: SIV-specific responses, FluoroSpot of PBMC
Description: Cytokines in plasma (at 1:2 dilution) were measured using the NHP Cytokine 24-Plex kit by Meso Scale Diagnostics (MSD) according to manufacturer instructions. Frozen PBMC collected at week 6 post-infection (pre-ART), right before the first galunisertib administration (BC1), at the end of cycle 1 (AC1) and at the end of cycle 3 (AC3) were thawed in AIM V medium (ThermoFisher) with benzonase (Sigma) and plated on a FluoroSpot (CTL) plate pre-activated with 70% Ethanol and IFN-γ, TNF-α and IL-2 capture solution. Gag, pol, and env 15-mer peptides (NIH AIDS Reagents program) were prepared at two times the final concentration of 2.5 μg/ml with co-stimulatory reagents anti-CD28 10 μg/ml and anti-CD49d 10 μg/ml and added to the cells in CTL-Test™ Medium. Parallel positive […] control of PMA (20 ng/ml) and ionomycin (200 ng/mL) or mock DMSO solution was also plated with the stimulatory reagents. PBMCs were added at 300,000 cells per well. After 24 hrs, the plate was washed, and incubated with detection and tertiary solutions and shipped to CTL for scanning and QC.

Tregs and Tfh cells = assay: Circulating Treg and Tfh frequencies by flow cytometry
Description: Peripheral blood mononuclear cells (PBMCs) collected from 8 macaques at 7 time points spanning Cycle 1 to Cycle 4 (refer to Table 5) were employed for high-parameter flow cytometry staining. Cells from before and after cycle 1 and at the end of cycle 3 were used for Tfh/Treg assay. In both cases, cell fixation and permeabilization for intracellular staining were carried out using the FoxP3 Staining Buffer set (Thermo Fisher Scientific, Carlsbad, CA). The high-dimensional panel consisted of antibodies outlined in Table 4, catering to requirements for surface and intracellular staining, as well as viability assessment. Each antibody was individually titrated to ensure optimal staining conditions. Data acquisition was performed using the FACSymphony A5.2 Spectral Analyzer. Following data collection, spectral compensation was implemented utilizing FlowJo™ v10.8 Software (BD Life Sciences). 60,000 live singlet lymphocytes from each of samples was downsampled to prevent disproportionate representation by samples with higher cell counts, ensuring balanced subsequent analysis. To mitigate batch effects, we utilized the swiftReg Neighbor-Dependent Cluster Registration (NDCR) method available within the SWIFT package(112). This method effectively addresses batch variations while preserving the inherent biological diversity. […] Furthermore, we implemented the Peak Extraction and Cleaning Oriented Quality Control (PeacoQC) procedure (138) in FlowJo™ v10.8 to eliminate low-quality events arising from potential issues like clogs, speed fluctuations, and slow sample uptake. FlowSOM FlowJo plugin was employed for automated cell population identification, preceded by the utilization of Phenograph to obtain optimal cluster numbers for dimensional reduction, for the merged data of All Time points and BC1 vs AC4 merged data respectively. The Supplementary FIG. 29A heatmap illustrates the median fluorescence intensity (MFI) values for all markers across all clusters. […]

[2] = tested on: SIVmac239 gag and env peptides; assay: Anti-SIV T cell responses, intracellular cytokine staining; conditions: before vs after treatment
Description: Frozen PBMC collected right before the first galunisertib administration and right after were thawed in AIM V medium (Thermo Fisher) plated on a plate pre-coated with 2.5 μg/ml goat anti mouse (GAM) IgGs and cross linked with 10 μg/ml anti-CD28 and anti-CD49d antibodies (Sigma Aldrich). Cells were stimulated either with SIVMAC239 GAG peptide pool (2 μg/ml) or with SIVMAC239 ENV peptide pool (2 μg/ml AIDS reagents program, Division of AIDS, NIAID, NIH) or the same volume of DMSO as baseline control. Pooled cells stimulated with 1 μg/ml PMA/Ionomycin were used a positive activation control. One hour later 10 μg/ml BFA and monensin (GolgiStop, BD Biosciences) were added to each well. After 5 hours, cells were transferred to a FACS plate and stained with the LIVE/DEAD Aqua viability dye (Thermo Fisher Scientific) and antibodies against cell surface and cytokines (Table 2).

pSMAD2/3 = assay: PhosphoSMAD2/3 over total SMAD2/3 in PBMC (ELISA); conditions: 2.5 or 5 mg/kg twice daily, 9 days
Description: Eight naïve macaques (FIG. 9) were used to collect plasma and PBMC for PK/PD studies. 4 macaques received galunisertib (2.5 mg/kg, n=2 or 5 mg/kg, n=2) once and blood was collected at 1 hr, 3 hr and 6 hrs, 24 hrs and 48 hrs. 4 macaques received galunisertib (2.5 mg/kg, n=2 or 5 mg/kg, n=2) twice daily for 9 days and samples were collected 1 hr, 3 hr and 8 hrs after administration on day 1 and on day 9 right before and 1 hr and 3 and 6 hrs after the last administration. Plasma concentrations of galunisertib were measured by IMSERC (Integrated Molecular Structure Education and Research Center) utilizing liquid chromatography mass spectrometry (Shimadzu Kyoto, Japan ultra-high performance liquid chromatography—UHPLC—system and SCIEX Framingham, MA Qtrap 6500+ triple quadrupole mass spectrometer). […] All samples and standards were processed in duplicate with the average area under the curve (AUC) being used for quantitation reporting. […] The resulting limit of quantitation (LOQ) was 1.0 ng/ml.
For PD studies, the levels of phosphorylated SMAD2/3 were measured using the PathScan PhospoSMAD2/3 ELISA kit (Cell Signaling Technology, CST) over the levels of Total SMAD2/3 in cell lysates Total SMAD ELISA Kit (Cell Signaling Technology, CST) normalized on protein content.

For `Cc1cccc(-c2nn3c(c2-c2ccnc4ccc(C(N)=O)cc24)CCC3)n1` [galunisertib, Galunisertib], the IL-2 release ([1]; end of 3rd cycle) was “remained unchanged”, the “IFN-γ secretion, SIV-specific and non-specific” value ([1]; end of the 3rd cycle vs BC1) was “significant increase” and the TNF-α release ([1]; in response to Gag and non-specifically) was “increased”. For the same compound, the “circulating Tfh (CXCR5+PD1+) within total and central memory CD4+ T cells” value (Tregs and Tfh cells; end of treatment) was “lower”, the “frequency of CD4+ Tregs (CD25high FoxP3+) and CD8+ Tregs” value (Tregs and Tfh cells; remained higher until end of 3rd cycle) was “increased after the first cycle” and the “expression of CD39 on total and central memory CD4+ T cells” value (Tregs and Tfh cells; rhesus monkey, in vivo) was “lower”. For the same compound, the “frequency of cells producing multiple cytokines” value [2] was “no increase”, the “frequency of IFN-γ producing CD4 and CD8 T cells” value ([2]; gag and env peptides stimulation) was “significant increase” and the “reduction in pSMAD2/3 over total SMAD in PBMC” value (pSMAD2/3) was ~25%.
